Results from patent publication US10074530B1, “Carbon nanotube anchor for mass spectrometer” (University of South Florida, priority 2008, dated 2018).

Assay: pH of solute solutions of equivalent molarity
Format: physicochemical
Conditions: solution in 1:1 volumetric ratio acetonitrile to de-ionized water; 1.32 × 10^−6 mol, concentration as in Table 3

Point of comparison: O=C(O)c1ccccc1O [Salicylic acid], pH 2.8. Against it:
- O=C(O)c1ccccc1 [Benzoic acid] — higher, 3.6
- Oc1ccccc1O [Catechol] — higher, 4.5
- OCCCCCCCCCCO [Decanediol, 1,10-Decanediol] — higher, 7.6
- N#CC(=Cc1ccc(O)cc1)C(=O)O [αCHCA, α-cyano-4-hydroxycinnamic acid] — lower, 2.75

Assay: Solubility of matrix in acetonitrile/de-ionized water matrix solvent
Format: physicochemical
Conditions: acetonitrile/de-ionized water 1:1 (v/v), aqueous with cosolvent or surfactant or cyclodextrin, thermodynamic from solid; 1:1 volumetric ratio acetonitrile to de-ionized water; read-out: Matrix concentration that displayed insolubility
Experimental: To further investigate the sample concentrating properties of CNT anchor spots, experiments were conducted using varying concentration of sample. Solutions were prepared. A solution of 1:1 volumetric ratio of acetonitrile to de-ionized water was prepared as a matrix solvent. Dry crystalline matrix αCHCA was weighed out with a Sartorius Research (Goettingen, Germany) model R200D digital precision balance and combined in a 1.5 mL Eppendorf® Safe-Lock Microcentrifuge tube (Westbury, N.Y.) with sufficient quantity of solution to achieve a matrix concentration varied over three orders of magnitude from 0.006 mg/mL to 6 mg/mL. […] All matrix solutions were prepared freshly and independently of each other in order to reduce possibility of concentration error. The samples were prepared by manually depositing 0.2 μL of solution from pipette to new carbon nanotube enhanced substrates (same parameters as previous experiment). The droplets were allowed to dry in ambient conditions (room temperature 23° C.), and time-lapse images were captured using the optical microscope described previously.

Work on N#CC(=Cc1ccc(O)cc1)C(=O)O [αCHCA, α-cyano-4-hydroxycinnamic acid] yielded a solubility greater than 6000 µg/mL.
